# Results from the NIST ThermoML archive (doi:10.1016/j.fluid.2005.09.009).
# ± gives the expanded uncertainty stated by the source.
# Columns and labels:
# [1] = 298.15 K; 101.33 kPa; Liquid
# [2] = refractive index (Na D-line) (dimensionless); conditions: 298.15 K; 101.33 kPa; Liquid; Standard Abbe refractometry
SMILES,mass density [1] [kg/m3],refractive index [2]
"C=CC(C)(O)CCC=C(C)C (stereo not given) [3,7-dimethyl-1,6-octadien-3-ol]",858.08 ± 2.2,1.4595 ± 0.0009
CCO [ethanol],785.12 ± 0.31,1.3593 ± 0.0007
O [water],–,1.3325 ± 0.0008
